Experimental data from patent publication US20220226337A1 (Gilead Sciences, Inc., priority 2018, published 2022).
pEC50: −log10 of the molar value.

What follows are compounds tested against T1, α4β7 integrin interaction with MadCAM-1 (RPMI8866 cells) (Homo sapiens, UniProt P13612+P26010) (assay: α4β7 Integrin Cell Capture Assay). Settings: capture of α4β7 integrin expressing RPMI8866 cells on recombinant MadCAM-1 extracellular domain-coated plate; 0.5 mM MnCl2.
T1 construct: α4β7 integrin expressing cells; endogenous in cells; host or cells: RPMI8866 cells
T1 sequence (P13612 34-1032): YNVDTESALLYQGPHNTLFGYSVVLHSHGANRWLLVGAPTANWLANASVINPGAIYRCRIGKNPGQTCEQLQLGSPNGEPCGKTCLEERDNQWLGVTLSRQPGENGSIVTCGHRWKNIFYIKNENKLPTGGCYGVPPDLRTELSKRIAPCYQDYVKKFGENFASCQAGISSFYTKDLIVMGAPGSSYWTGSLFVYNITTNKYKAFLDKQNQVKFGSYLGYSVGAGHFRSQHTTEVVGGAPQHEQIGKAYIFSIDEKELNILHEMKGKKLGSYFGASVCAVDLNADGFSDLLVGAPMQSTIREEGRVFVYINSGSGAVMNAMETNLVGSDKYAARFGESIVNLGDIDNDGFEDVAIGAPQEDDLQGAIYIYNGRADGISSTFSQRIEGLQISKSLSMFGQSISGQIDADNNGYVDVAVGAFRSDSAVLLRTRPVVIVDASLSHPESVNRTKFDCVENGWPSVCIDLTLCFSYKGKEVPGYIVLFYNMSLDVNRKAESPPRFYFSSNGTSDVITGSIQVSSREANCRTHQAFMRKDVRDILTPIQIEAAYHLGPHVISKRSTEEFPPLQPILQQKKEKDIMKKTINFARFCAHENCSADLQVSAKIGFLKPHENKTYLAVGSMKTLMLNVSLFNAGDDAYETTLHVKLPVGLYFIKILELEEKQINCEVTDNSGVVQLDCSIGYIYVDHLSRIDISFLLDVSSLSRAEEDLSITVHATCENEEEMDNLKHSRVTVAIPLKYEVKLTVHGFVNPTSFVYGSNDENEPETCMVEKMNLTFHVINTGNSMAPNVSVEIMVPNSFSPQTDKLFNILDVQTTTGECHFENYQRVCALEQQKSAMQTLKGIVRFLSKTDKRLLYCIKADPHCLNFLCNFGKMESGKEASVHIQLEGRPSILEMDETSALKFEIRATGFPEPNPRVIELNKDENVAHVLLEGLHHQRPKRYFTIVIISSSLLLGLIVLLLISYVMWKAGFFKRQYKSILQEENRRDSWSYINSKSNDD
T1 sequence (P26010 20-798): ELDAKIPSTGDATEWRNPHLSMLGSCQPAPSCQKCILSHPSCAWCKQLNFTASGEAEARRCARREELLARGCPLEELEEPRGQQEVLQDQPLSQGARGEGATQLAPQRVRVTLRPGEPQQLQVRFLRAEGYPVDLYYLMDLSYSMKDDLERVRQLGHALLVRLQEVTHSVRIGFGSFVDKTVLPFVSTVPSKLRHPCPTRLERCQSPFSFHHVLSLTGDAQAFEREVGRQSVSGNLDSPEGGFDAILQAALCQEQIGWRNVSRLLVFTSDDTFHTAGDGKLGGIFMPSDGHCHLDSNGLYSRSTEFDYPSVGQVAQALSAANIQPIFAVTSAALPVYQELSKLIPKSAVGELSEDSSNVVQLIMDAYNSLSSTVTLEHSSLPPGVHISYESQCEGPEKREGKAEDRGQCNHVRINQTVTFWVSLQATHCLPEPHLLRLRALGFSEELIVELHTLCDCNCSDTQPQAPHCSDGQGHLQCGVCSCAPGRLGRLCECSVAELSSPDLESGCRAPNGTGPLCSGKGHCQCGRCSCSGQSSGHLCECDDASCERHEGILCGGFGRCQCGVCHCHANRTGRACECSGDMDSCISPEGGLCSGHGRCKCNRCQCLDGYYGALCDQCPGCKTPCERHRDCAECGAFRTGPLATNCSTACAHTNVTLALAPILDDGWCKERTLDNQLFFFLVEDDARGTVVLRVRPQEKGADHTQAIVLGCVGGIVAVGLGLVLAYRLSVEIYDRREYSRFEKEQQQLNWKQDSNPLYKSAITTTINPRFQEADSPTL
Format: cell-based
Experimental: The potency of inhibitors in preventing α4β7 integrin interaction with MadCAM-1 was measured by monitoring the capture of α4β7 integrin expressing cells on a recombinant MadCAM-1 extracellular domain-coated plate. 384-well plates (Corning 3702) were coated with MadCAM-1 extracellular domain by dispensing 20 μL of MAdCAM-1 at 1.0 μg/mL per well and incubating overnight at 4° C. The plates were then washed with PBS and blocked with 3% BSA for 2 hours before being washed again. RPMI8866 cells were spun down and re-suspended in assay medium (DMEM+0.5% FBS+0.5 mM MnCl2) at a density of 0.5×10^6 cells/mL. The cells were then dispensed (60 μL/well) to a 384-well plate (Greiner 781280) that was previously spotted with 60 nL of test compound per well. The plates were incubated at 37° C. for 1 hour. 50 μL of cells were transferred to the blocked, MadCAM-1-coated plates and incubated for 30 minutes at 37° C. 10 μL of 12% glutaraldehyde containing Hoechst 33342 (0.06 mg/mL) was added to the cells (2% glutaraldehyde and 0.01 mg/mL final concentrations). The plates were incubated for 90 minutes at room temperature. The plates were then washed 3 times with 70 μL of PBS per well and imaged on a Cellomics ArrayScan instrument. The cells that were bound to the plate were counted and plotted against the compound concentration to determine the EC50 of the test compounds.

Compound | pEC50
O=C(N[C@@H](Cc1ccc(-c2c(Cl)cc(F)cc2Cl)c2c1C1CC1CO2)C(=O)O)c1c(F)cccc1F (stereo partly drawn) [Example 77, (2S)-3-(4-(2,6-dichloro-4-fluorophenyl)-1,1a,2,7b-tetrahydrocyclopropa [c]chromen-7-yl)-2-(2,6-difluorobenzamido)propanoic acid] | 7.15
COc1cc(C)n(C)c(=O)c1-c1ccc(C[C@H](NC(=O)c2c(C)cc(N3CCOC[C@@H]3C(F)(F)F)cc2F)C(=O)O)c2c1CCC2 [Example 198] | 10.09
Cc1nc(-c2ccc(C[C@H](NC(=O)c3c(F)cc(N4CCC(F)(F)C[C@H]4C(F)(F)F)cc3F)C(=O)O)c3c2OCCC3)c(=O)n(C)c1C [Example 143] | 8.33
COc1cccc(OC)c1-c1ccc(CC(NC(=O)c2c(F)cc(NS(=O)(=O)c3ccc(-n4cncn4)cc3)cc2F)C(=O)O)c2c1CN(C)CC2 (stereo not shown) [Example 106, 2-(4-((4-(1H-1,2,4-triazol-1-yl)phenyl)sulfonamido)-2,6-difluorobenzamido)-3-(8-(2,6-dimethoxyphenyl)-2-methyl-1,2,3,4-tetrahydroisoquinolin-5-yl)propanoic acid] | 9.23
Cc1cn(C)c(=O)c(-c2ccc(C[C@H](NC(=O)c3c(F)cc(N4CCOC[C@@H]4C(F)(F)F)cc3F)C(=O)O)c3c2OCCC3)n1 [Example 168] | 9.02
COc1cc(C)n(C)c(=O)c1-c1ccc(C[C@H](NC(=O)c2c(F)cc(N[C@H](C)C(F)(F)F)cc2F)C(=O)O)c2c1OCCC2 [Example 48, (S)-2-(2,6-difluoro-4-(((R)-1,1,1-trifluoropropan-2-yl)amino)benzamido)-3-(8-(4-methoxy-1,6-dimethyl-2-oxo-1,2-dihydropyridin-3-yl)chroman-5-yl)propanoic acid] | 8.91
Cn1cc(-c2ccc(C[C@H](NC(=O)c3c(F)cc(N[C@H](c4ccccc4)C(F)(F)F)cc3F)C(=O)O)c3c2OCCC3)c(=O)n(C)c1=O [Example 85, (S)-2-(2,6-difluoro-4-(((R)-2,2,2-trifluoro-1-phenylethyl)amino)benzamido)-3-(8-(1,3-dimethyl-2,4-dioxo-1,2,3,4-tetrahydropyrimidin-5-yl)chroman-5-yl) propanoic acid] | 9.28
Cn1c(=O)c(-c2ccc(C[C@H](NC(=O)c3c(Cl)cccc3Cl)C(=O)O)c3c2OC(C)(C)C3)cc2ccccc21 [Example 38, (S)-2-(2,6-dichlorobenzamido)-3-(2,2-dimethyl-7-(1-methyl-2-oxo-1,2-dihydroquinolin-3-yl)-2,3-dihydrobenzofuran-4-yl)propanoic acid] | 7.69
C[C@@H](Nc1cc(F)c(C(=O)N[C@@H](Cc2ccc(-c3ncccc3C(F)(F)F)c3c2CCCO3)C(=O)O)c(F)c1)C(F)(F)F [Example 89, (S)-2-(2,6-difluoro-4-(((R)-1,1,1-trifluoropropan-2-yl)amino)benzamido)-3-(8-(3-(trifluoromethyl)pyridin-2-yl)chroman-5-yl)propanoic acid] | 8.07
Cc1cc(C(F)(F)F)c(-c2ccc(C[C@H](NC(=O)c3c(F)cc(N4CCOC[C@@H]4C(F)(F)F)cc3F)C(=O)O)c3c2CCC3)c(=O)n1C [Example 202] | 9.84
COc1cc(F)c(F)cc1-c1ccc(C[C@H](NC(=O)c2c(Cl)cccc2Cl)C(=O)O)c2c1OCCC2 [Example 70, (S)-2-(2,6-dichlorobenzamido)-3-(8-(4,5-difluoro-2-methoxyphenyl)chroman-5-yl)propanoic acid] | 7.52
Cc1nc(-c2ccc(C[C@H](NC(=O)c3c(F)cc(N4CCOC[C@@H]4C(F)(F)F)cc3F)C(=O)O)c3c2CN(C)C3)c(=O)n(C)c1C [Example 205] | 8.90
Cc1cnc(-c2ccc(C[C@H](NC(=O)c3c(F)cc(N4CCOC[C@@H]4C(F)(F)F)cc3F)C(=O)O)c3c2COC3)nc1C [Example 28, (S)-2-(2,6-difluoro-4-((R)-3-(trifluoromethyl)morpholino)benzamido)-3-(7-(4,5-dimethylpyrimidin-2-yl)-1,3-dihydroisobenzofuran-4-yl)propanoic acid] | 7.02
